The nature of one data set: plasma stability. It counts as in vitro ADME. To be noted: rat plasma; for Plasma stability, remaining of the intact test compound: 37° C. Here is the method:
Briefly, each tube is added 882 μL of 1:1 diluted rat plasma with phosphate buffer (pH 7.4). 18 μL (100 μM) of DMSO stock solution of the test compound (4, 13 and 15) or positive control compound (Diltiazem) was added to make a final compound concentration 2 μM in the plasma solution and final DMSO content 2%. The mixture was incubated at 37° C. After the incubation at 0, 15, 30, 60, and 120 min time points, aliquots of 50 μL samples were quenched with 100 μL of ice-cold acetonitrile with 25 μM of the internal reference (for HPLC analysis), respectively. The quenched samples were centrifuged at 10,000×g, and the supernatant was analyzed by HPLC. The percentage of remaining intact test compound was calculated by (peak area at the specific time point)/(peak area at 0 min)×100. Every sample was assayed three times.

Another data set concerns the target mGluR4 (Homo sapiens, UniProt Q14833). The data set is described as follows: GloSensor cAMP biosensor assay, mGluR4 PAM and agonist activity. It counts as cell-based. Further details: expressed in transfected cells. Here is the method: Cell Culture. HEK-293 cells were maintained with complete Dulbecco's modified Eagle's medium (DMEM), which was composed of 10% fetal bovine serum (FBS), 2 mM L-glutamine, 100 units/mL penicillin G, 100 μg/mL streptomycin at 37° C. in the presence of 5% CO2. HEK-293 stable cell lines with tetracycline inducible expression of mGluR1, mGluR2, mGluR4, mGluR6 or mGluR8 were maintained with complete DMEM with Hygromycin B (100 μg/mL), Blasticidin (15 μg/mL) at 37° C. in the presence of 5% CO2.
cAMP assay. The Gi/o coupled receptors (mGluR2, mGluR3, mGluR4, mGluR6 and mGluR8) were tested using cAMP assay. Promega's split luciferase based GloSensor cAMP biosensor technology was used in determining Gi-GPCR mediated cAMP production in live cells. On the cells stably expressing mGluR2, mGluR3, mGluR4, mGluR6 or mGluR8, GloSensor cAMP DNA construct was transfected overnight. Cells were seeded into PLL coated 384-well white clear bottom cell culture plates with complete BME Buffer with Tetracycline (1 μg/mL) at a density of 20,000 cells for another 24 h. The cell medium was removed and then 20 μL of buffer was loaded. […] Luminescence was counted in a Trilux luminescence counter. Data were analyzed with Prizm 5.0 (GraphPad software).
Secondary assays—Dose-response assays. […] For each compound, the results from four replicates were averaged and then either EC50 or IC50 values were calculated by non-linear regression using the 4-parameter logistic equation. […]
In sum, the mGluR4 PAM activity was determined using Promega's split luciferase based GloSensor cAMP biosensor assay (refs. 41-42). mGluR4 is coupling to Gαi protein to inhibit adenylate cyclase, which converts ATP to cAMP, which plays an important role in many signal transduction pathways. […] The mGluR4 PAM activity of 15 was evaluated in presence of EC20 concentration of agonist (1 μM L-SOP) by measuring changes in intracellular cAMP concentration.

Another data set can be described thus: solution stability. In kind it is physicochemical. Here is the method:
Three pH values, 5, 7.4 and 9.4 were selected to check the solution stability. Aqueous solutions with different pH values were established using the following buffers: sodium acetate-KCl—HCl buffer (20 mM, pH 5.0), phosphate buffer (20 mM, pH 7.4), and boric acid-KCl—NaOH buffer (20 mM, pH 9.4). 891 μL of each pH buffer was placed in different tubes. 9 μL (1 mM) of the sample stock (4, 13, 15 and Diltiazem) was transferred to a particular buffer tube and mixed just before the time 0 min. The mixture was vortexed and incubated at 37° C. After the incubation at the different time points (0, 15, 30, 60, and 120 min), aliquots of 50 μL samples were quenched with 100 μL of ice-cold acetonitrile with 25 μM internal reference, respectively, and analyzed by HPLC. The percentage of the remaining intact compound was calculated by (peak area at the specific time point)/(peak area at 0 min)×100. Every sample was assayed three times.

Data set [1] in a line: plasma protein binding, ultrafiltration assay using [18F]15. In kind it is in vitro ADME. To be noted: human plasma. Here is the method:
Plasma Protein Binding Assay. An aliquot of radiolabeled compound [^18F]15 in saline (10 μL, 74 kBq) was added to a sample of human plasma (0.5 mL). The mixture was gently mixed by repeated inversion and incubated for 10 min at room temperature. Following incubation, a small sample (10 μL) was removed to determine the total radioactivity in the plasma sample (AT; AT=Abound+Aunbound). The upper part of the Centrifree tube was discarded, and an aliquot (10 μL) from the bottom part of the tube was removed to determine the amount of unbound radioactivity (Aunbound) that passed through the membrane (molecular weight cutoff 30 kD). The radioactivity of each sample was measured using PerkinElmer Wizard2 2480 gamma-counter. Plasma protein binding was derived by the following equation: % unbound=Aunbound×100/AT.
As the PET tracer is delivered into the bloodstream, it can bind to albumin, α1-acid glycoprotein and lipoproteins. Plasma protein binding reduces the free drug in the bloodstream and inhibits BBB penetration to reach the brain target. (Ref 44) The PPB value was obtained with an ultrafiltration assay by using [^18F]15. […] These pharmacological properties along with other molecular properties such as MW, tPSA and HBO are in the range normally considered favorable for a PET ligand.

pEC50: −log10 of the molar value. Where two headings read alike, the source gives them in different places.

In general, pEC50 refers to the negative decadic logarithm of the EC50, by convention in mol/L.

Sequence of mGluR4 (Q14833 33-912): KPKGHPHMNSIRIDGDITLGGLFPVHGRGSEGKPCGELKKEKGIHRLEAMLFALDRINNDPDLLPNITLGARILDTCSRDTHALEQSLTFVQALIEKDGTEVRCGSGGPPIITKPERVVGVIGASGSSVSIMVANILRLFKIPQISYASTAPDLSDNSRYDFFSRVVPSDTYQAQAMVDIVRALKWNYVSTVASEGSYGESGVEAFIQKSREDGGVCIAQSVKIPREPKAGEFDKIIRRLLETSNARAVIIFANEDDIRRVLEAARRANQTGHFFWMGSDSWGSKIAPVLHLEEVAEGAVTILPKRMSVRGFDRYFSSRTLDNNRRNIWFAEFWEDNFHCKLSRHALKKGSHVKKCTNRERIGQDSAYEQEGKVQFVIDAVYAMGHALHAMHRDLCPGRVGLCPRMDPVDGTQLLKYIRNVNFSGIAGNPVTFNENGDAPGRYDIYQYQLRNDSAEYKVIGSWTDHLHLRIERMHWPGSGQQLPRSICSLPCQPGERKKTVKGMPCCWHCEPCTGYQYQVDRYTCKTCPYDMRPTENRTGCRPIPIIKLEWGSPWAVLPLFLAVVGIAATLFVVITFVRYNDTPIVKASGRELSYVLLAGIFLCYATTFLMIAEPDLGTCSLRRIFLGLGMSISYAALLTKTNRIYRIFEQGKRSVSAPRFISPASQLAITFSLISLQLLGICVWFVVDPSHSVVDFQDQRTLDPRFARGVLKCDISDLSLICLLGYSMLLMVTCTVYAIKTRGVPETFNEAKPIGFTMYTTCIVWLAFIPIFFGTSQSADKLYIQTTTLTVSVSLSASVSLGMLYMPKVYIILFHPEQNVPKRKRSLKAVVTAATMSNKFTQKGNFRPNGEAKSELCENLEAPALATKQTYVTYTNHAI

`[2H]C([2H])(F)Sc1cc(NC(=O)c2ccccn2)ccc1Cl` [Compound 15, N-(4-Chloro-3-((fluoromethyl-d2)thio)phenyl)picolinamide]: the “Plasma stability, remaining of the intact test compound” value in “plasma stability” (0 min) stood at 100.00 ± 1.88%; in “plasma stability” (15 min), 93.46 ± 1.96%; in “plasma stability” (30 min), 104.21 ± 2.84%; in the data set “plasma stability” (60 min), 94.54 ± 5.18%; in the data set “plasma stability” (120 min), 84.52 ± 10.16%. Moreover, in “plasma stability” (120 min), the “The plasma stability, The intact ± SEM at 120 min (%)” value was determined as 84.5 ± 10.2%. Further, the pEC50 is 5.56 at mGluR4 (agonist mode, cAMP assay, read-out: EC50, mGluR4 agonist activity) and 6.49 on mGluR4 (in presence of EC20 concentration of agonist (1 μM L-SOP), read-out: EC50, mGluR4 PAM activity). For the same molecule, the “The solution stability, The intact ± SEM at 120 min (%)” value in “solution stability” (pH = 5.0, 37° C.) was found to be 87.1 ± 0.9%; in “solution stability” (pH = 7.4, 37° C.), 88.3 ± 1.9%; in “solution stability” (pH = 9.4, 37° C.), 84.3 ± 1.8%. In data set [1], the “PPB (plasma protein binding)” value was 93.1%.

Values taken from patent publication US20220118117A1, “MODULATORS OF METABOTROPIC GLUTAMATE RECEPTOR 4” (The General Hospital Corporation, priority 2019, published 2022).
